US20110224300A1, “USE OF POTASSIUM 2-(a- HYDROXYPENTYL) BENZOATE IN THE MANUFACTURE OF MEDICAMENTS FOR PREVENTING AND/OR TREATING SENILE [sequence]” (Institute of Mataria Medica, Chinese Academy of Me, priority 2008, published 2011)

Assays:
ChAT = ChAT activity of brain tissues from Aβ(25-35)-induced dementia rats; assay type: in vivo, Male Wistar rats; conditions: Aβ(25-35) rats, 2 weeks
Method: (§1) The biochemical assays were conducted later (in 24 h) after behavioral testing. Eight rats in each group were anesthetized with ether and sacrificed. The brains were quickly removed and cleaned with ice-cold saline. Then the parietal cortex and hippocampus were isolated. For biochemical analysis, the tissues were weighed and homogenized in ice-cold saline with the proportion of 1:9 (w/v). Homogenization (IKA, Germany) was carried out for 2 min in an ice bath. After the homogenates were centrifuged at 2,000×g for 10 min at 4° C. (Sigma, Germany), the supernatant was used for analytical procedures. The levels of choline acetyltransferase (ChAT) SOD, and MDA activities were determined with commercial colorimetric assay kits (Nanjing Jiancheng Bioengineering Institute, China). The content of protein in the supernatant was determined by Bradford method using BSA as standard.
Rats were divided into four experimental groups randomly (10 rats/each group): one sham-operated group, one vehicle control group, and two dl-PHPB-treated groups (39, and 129 mg/kg). At 1 days after operation, drugs and vehicle were administered orally to rats for 14 days (one time/each day). The spatial learning and memory abilities of rats were detected by Morris water maze in the 9-12 days after operation. The testing of Morris water was commenced at 40 min after drugs treated. […]

[1] = tested on: corpus callosum and optic tract of 2-VO rats; assay: Klüver-Barrera staining in 2-VO rats; assay type: in vivo, rat; conditions: for improvement of pathological damage of the corpus callosum, K-B staining: 21 days, rank among doses
Method: Four rats in each group were anesthetized with sodium pentobarbital (100 mg/kg, intraperitoneal injection), and perfused transcardially with cold saline, followed by 300 ml of 4% paraformaldehyde in 0.01 M phosphate buffer (pH 7.4). After these procedures, the brains were removed and stored in the 0.01 M phosphate buffer (pH 7.4) with 4% paraformaldehyde and 30% sucrose at 4° C. until fully equilibrated. Then they were postfixed at 4° C., dehydrated and embedded in paraffin blocks. Coronal sections of 8 μm were stained with hematoxylin-eosin and Klüver-Barrera.
KB staining could reflect the morphological changes of neuronal myelin sheath, and the morphological changes of nerve fibers.

SOD [2] = assay: SOD activity of brain tissues from permanent 2-VO rats; assay type: in vivo, rat; conditions: for SOD activity in cortex: 21 days
Method: In 10 days after onset of 2-VO, drugs and vehicle were administered orally to rats for 21 days (one time/each day). The spatial learning and memory capability of rats were detected by Morris water maze in the 25-30 days after operation. The Morris water test was commenced at 40 min after drugs treated. The biochemical and pathology assays were conducted later (in 24 h) after behavioral tests.
as §1

SOD [3] = assay: SOD activity of brain tissues from Aβ(25-35)-induced dementia rats; assay type: in vivo, Male Wistar rats; conditions: Aβ(25-35) rats; for SOD activity in the cortex: 2 weeks, vehicle 286.8±18.3
Method: as §1
Rats were divided into four experimental groups randomly (10 rats/each group): one sham-operated group, one vehicle control group, and two dl-PHPB-treated groups (39, and 129 mg/kg). At 1 days after operation, drugs and vehicle were administered orally to rats for 14 days (one time/each day). The spatial learning and memory abilities of rats were detected by Morris water maze in the 9-12 days after operation. The testing of Morris water was commenced at 40 min after drugs treated. The biochemical and pathology assays conducted later (in 24 h) after behavioral testing.
The methods as described previously.

SMILES: CCCCC(O)c1ccccc1C(=O)[O-].[K+] (racemic) [dl-PHPB, Potassium 2-(1-Hydroxypentyl)-benzoate]
- cortical ChAT activity (ChAT; 39 mg/kg, P<0.05): significantly increased the ChAT activity
- cortical ChAT activity (ChAT; 129 mg/kg): strong trend
- improvement of pathological damage of the corpus callosum, K-B staining ([1]; dl-PHPB 13 mg/kg): the weakest
- pathological changes of the optic tract, K-B staining ([1]; dl-PHPB 39 mg/kg): strong role
- improvement of pathological damage of the corpus callosum, K-B staining ([1]; dl-PHPB 39 mg/kg): strongest
- pathological changes of the optic tract, K-B staining ([1]; dose not specified): a certain improvement
- SOD activity in cortex (SOD [2]; dl-PHPB 13 mg/kg): significantly alleviated the increase of SOD activity
- SOD activity in cortex (SOD [2]; dl-PHPB 39 mg/kg): significantly alleviated the increase of SOD activity
- SOD activity in hippocampus (SOD [2]; hippocampus, doses not given): no significant effects
- SOD activity in the cortex (SOD [3]; 39 mg/kg oral): 238.2±32.7 U/mg protein
- SOD activity in the cortex (SOD [3]; 129 mg/kg oral, P<0.01): 185.2±21.6 U/mg protein
- SOD activity in the hippocampus (SOD [3]; hippocampus): not significantly improved
